Measured values from US11439640B2, “Pharmaceutical composition comprising substance inhibiting enzymatic activity of peroxiredoxin 2 as effective ingredient for treatment of colorectal cancer” (EWHA UNIVERSITY-INDUSTRY COLLABORATION FOUNDATION, priority 2017, dated 2022).
Values belong to the compound of their own block, whether it stands above or below them. Residues, ends and D or L forms follow the SMILES beside them. *: point of attachment. Cbz = O=C(OCc1ccccc1)*

Assays:
[1] = tested on: Axin1-related destruction complex; assay: Co-immunoprecipitation of Axin1-related destruction complex; assay type: cell-based, human; conditions: SW480 cells; FIG. 34
Method: (§1) For immunoprecipitation, purified cell lysates (0.5-1 mg of proteins) were removed in advance with 30 μL of protein-A/G Sepharose 4 Fast Flow beads (Amersham Biosciences) for one hour.
(§2) Supernatants (cultures floating on the surface) were incubated with 3 μg of an appropriate antibody overnight, and then, precipitated by mixing with 30 μL of protein-A/G beads at 4° C. for three hours.
(§3) Then, the beads were washed three times with 1 mL of lysis buffer, followed by in vitro PARP analysis or immunoblotting.

RKO cells = assay: Colony forming assay in RKO cells; assay type: cell-based, human; conditions: APC wild-type CRC cells
SW480 cells = assay: Colony forming assay in SW480 cells; assay type: cell-based, human; conditions: APC-mutant CRC cells
[2] = tested on: tumor xenograft derived from HT29; assay: HT29 tumor xenograft in mice (luminescence imaging, tumor weight); assay type: in vivo, mouse; conditions: intraperitoneal, 286 μM in DMSO, from 6 days after cell injection, every 3 days; FIGS. 65 and 66
Method: In the case of a tumor xenograft model, the mice were anesthetized by the inhalation of isoflurane gas (N2O:O2/70%:30%) and subcutaneously injected with HT29-luc2 cells (2.5×10^5 cells) suspended in 200 μL of PBS. Compound 1 to Compound 6 (286 μM in DMSO) were intraperitoneal administered starting from 6 days after the cell injection and repeated every 3 days.
Bioluminescent imaging was performed with IVIS Lumina Series III (Perkin Elmer). For each image photographing session, luciferin suspended in PBS (150 mg of luciferin/kg body weight) was administered intraperitoneally according to the manufacturer's protocol.
Up to four animals were maintained in the integral anesthetic manifold equipment and they were imaged 10 minutes after luciferin injection. The IVIS imaging system collects the photographic images of mice and quantitative bioluminescent signals therefrom and then allows them to overlap with each another.

recombinant human PrxI = target: T1, recombinant human PrxI (Homo sapiens, UniProt Q06830); assay: Peroxiredoxin (peroxidase) assay, PrxI; assay type: biochemical
T1 sequence (Q06830 1-199): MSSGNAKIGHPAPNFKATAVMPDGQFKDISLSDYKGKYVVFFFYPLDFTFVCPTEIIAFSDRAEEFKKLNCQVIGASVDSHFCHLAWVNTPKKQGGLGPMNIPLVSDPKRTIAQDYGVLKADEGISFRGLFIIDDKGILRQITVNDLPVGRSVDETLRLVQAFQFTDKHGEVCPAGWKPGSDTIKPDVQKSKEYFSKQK
Method: The peroxidase assay was performed in a reaction mixture (200 μL) containing 250 μM NADPH, 1.5 μM yeast TR, 3 μM yeast Trx, a recombinant human Prx (PrxI (4.6 μM) and PrxII (16.4 μM)), and […] (pH 7.0) containing 1 mM EDTA, and […] H2O2.
The mixture (minus H2O2) was preincubated for 5 minutes in the presence or absence of Compounds 1 to 6 (100 μM), and then, the reaction was initiated by adding H2O2. NADPH oxidation was monitored at 30° C. for 5 minutes as the absorbance decreased near 340 nm using an Agilent UV8453 spectrophotometer (Hewlett Packard. USA). The initial reaction rate was calculated using the linear portion of the curve and indicated as the amount of oxidized NADPH per minute.

HT29 cells = assay: Colony forming assay in HT29 cells; assay type: cell-based, human; conditions: APC-mutant CRC cells
GST-TNKS1 PARP protein = GST-TNKS1 PARP protein (Homo sapiens, UniProt O95271); conditions: 500 μM H2O2 for 30 minutes; FIG. 49
Method: Zinc ions were observed using 4-(2-pyridylazo) resorcinol (PAR) in an aqueous solution.
The GST-TANK1 PARP protein was incubated with 500 μM H2O2 for 30 minutes in 200 μL of 40 mM HEPES (pH 7.0) reaction buffer containing 0.1 mM PAR. The formation of a PAR2-Zn^2+ complex was monitored at 500 nm with a UV/VIS spectrophotometer (Agilent).
The total zinc content of the purified GST-TNKS1 PARP protein used in the assay was determined by adding 0.5 mM p-chloromercuribenzoic acid to a reaction mixture.

TNKS = conditions: FIG. 40
Method: (§4) Immunocomplex-bound beads were incubated at 25° C. for 30 minutes in 40 μL of assay buffer (50 mM Tris-HCl, pH 8.0, 4 mM MgCl2) containing 4 μCi of γ-^32[P]-NAD^+. The reaction was stopped by adding 2×SDS sample buffer. The sample was boiled and separated using an SDS denaturing gel.
(§5) The gel was dried under vacuum and radiographed on an imaging plate. Radioactivity recorded on the plate was read and quantified by Fujifilm Bio-imaging Analyzer System (BAS)-3000.

[3] = target: recombinant TNKS1 PARP domain (amino acids of 1023-1327) (Homo sapiens, UniProt O95271); conditions: incubation with H2O2; FIG. 48
Method: as §4, §5

Axin1 = Axin1 immunoprecipitation, PARsylation and ubiquitination blot; assay type: cell-based, human; conditions: cells of the control, HT29 and SW480
Method: as §1, §2, §3

GST-TNKS1 PARP protein, sequence (O95271 1023-1327): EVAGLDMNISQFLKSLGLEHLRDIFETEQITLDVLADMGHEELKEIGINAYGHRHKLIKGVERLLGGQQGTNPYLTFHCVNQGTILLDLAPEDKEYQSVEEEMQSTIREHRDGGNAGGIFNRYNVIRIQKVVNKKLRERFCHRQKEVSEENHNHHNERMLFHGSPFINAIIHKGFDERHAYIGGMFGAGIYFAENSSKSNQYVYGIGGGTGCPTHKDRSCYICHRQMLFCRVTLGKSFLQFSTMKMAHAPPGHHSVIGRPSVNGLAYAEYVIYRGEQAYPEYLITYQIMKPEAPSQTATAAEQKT
recombinant TNKS1 PARP domain (amino acids of 1023-1327), sequence (O95271 1023-1327): as above

Compound: O=C1Nc2cc(Br)ccc2/C1=C1/Nc2ccccc2/C1=N\O [BIO]
phospho-β-catenin in the Axin1-related destruction complex [1]: disappeared

effect on initial rate of PrxI activity (in words) (recombinant human PrxI; 100 μM compound): not affected
inhibition at 100 µM (recombinant human PrxI; 100 μM compound, FIG. 63): ~50%
initial rate of PrxI activity (recombinant human PrxI; group treated with Conoidin A, 100 μM, control 263.7±45.4): 241.7 ± 21 nmol/min
Compound: [O-][n+]1c(CBr)c(CBr)[n+]([O-])c2ccccc21 [Compound 6, 2,3-bis(bromomethyl)quinoxaline 1,4-dioxide]
inhibition of proliferation (colony formation) of RKO cells (RKO cells): not
inhibition of proliferation (colony formation) of SW480 cells (SW480 cells): sufficiently inhibited
tumor growth compared to the control [2]: significantly delayed
inhibition of proliferation (colony formation) of HT29 cells (HT29 cells): sufficiently inhibited

Compound: OO [Compound H2O2, hydrogen peroxide]
TNKS1 PARP proteins that lost zinc ions (GST-TNKS1 PARP protein): ≥ 90%
TNKS activity (PARP) in HT29 cells (TNKS; HT29 cells): inhibited
TNKS activity (PARP) in SW480 cells (TNKS; SW480 cells): inhibited
polyADP-ribosylation activity of TNKS1 PARP domain [3]: fully inactivated

Compound: CC(C)C[C@@H](C=O)NC(=O)[C@H](CC(C)C)NC(=O)[C@H](CC(C)C)NC(=O)OCc1ccccc1 [MG132] (Cbz-Leu-Leu-Leu-aldehyde)
PARsylated and ubiquitinated Axin1 (Axin1): induces the accumulation
